Measurements taken from US20250136556A1, “NOVEL MODULATORS OF THE ARYL HYDROCARBON RECEPTOR AND METHODS OF USE THEREOF” (Allianthera (Suzhou) Biopharmaceutical Co., Ltd., priority 2021, published 2025).
Where two headings read alike, the source gives them in different places.

Assays:
[1] = test system: IL-6 gene expression in human primary M1 macrophage cells; experiment: AHR-regulated IL-6 inhibition in human primary M1 macrophage (qPCR); type: cell-based; conditions: LPS/IFN-gamma/GM-CSF, 24 hours; for IC50: read-out: M1 assay IL6 -IC50
Method: Human M1 macrophage was differentiated from PBMC. Briefly, at day 1, monocytes were isolated from human PBMC using EasySe Human Monocyte Enrichment Kit without CD16 Depletion (Stemcell, 19058). The isolated monocytes were seeded at 3×10^7 cells in 15 cm dish using 30 ml medium containing 50 ng/ml GM-CSF (R&D, 215-GM-050/CF). At day 5, 30 ml fresh medium containing 50 ng/ml GM-CSF was added. At day 8, 1.5×10^5 cells/well were re-seeded into 24 wells plate, and 500 ul medium containing 10 ng/ml LPS (Sigma, L7770), 20 ng/ml IFN-gamma (PeproTech, 300-02), 50 ng/ml GM-CSF and the test compounds was added. […] The IL-6 expression was inhibited with AHR agonists described in literature as the positive inhibition control, alternatively the un-stimulated cells were used as the negative inhibition control. […] The primers for human GAPDH (F: […]; R: […]) and human IL-6 (F: […]; R: […]) were used to analyze fold expression of IL-6 of GAPDH by quantitative PCR.

[2] = test system: AHR-regulated gene CYP1A1; experiment: AHR-regulated CYP1A1 expression in human monocytic U937 cell line (qPCR); conditions: U937 cells, 16 hours, CYP1A1 relative to GAPDH
Method: To evaluate the AHR agonist activity of the test compounds, quantitative PCR analysis was used to determine expression level of the AHR-regulated gene CYP1A1 in a human monocytic U937 cell line. U937 cells were seeded at a concentration of 5×10^5 cells/well in 200 μL of growth medium in 96-well cell culture microplates. CYP1A1 expression was induced with AHR agonists described in literature as a positive control or the test compounds for 16 hours. […] Unstimulated cells were used as the negative control. Taqman probes for human CYP1A1 (Hs01054797_g1) and human GAPDH (Hs02786624_g1) were used to analyze fold expression of CYP1A1 of GAPDH.

[3] = target: T1, Human Aryl Hydrocarbon Receptor (AHR) (Homo sapiens, UniProt P35869); experiment: AHR agonist reporter assay in human cell line (INDIGO luciferase reporter); type: cell-based; conditions: reporter cells; for EC50: 24 hours incubation; for AHR % activation to Tapinarof at 1 μM: 24 hours, value in brackets;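 as to all read-outs here: firefly luciferase luminescence read on a plate reader, values normalized against positive and negative controls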
T1 construct: purchased INDIGO Bioscience IB06001-32; host or cells: AHR Reporter Cell (proprietary kit cells)
T1 sequence (P35869 11-848): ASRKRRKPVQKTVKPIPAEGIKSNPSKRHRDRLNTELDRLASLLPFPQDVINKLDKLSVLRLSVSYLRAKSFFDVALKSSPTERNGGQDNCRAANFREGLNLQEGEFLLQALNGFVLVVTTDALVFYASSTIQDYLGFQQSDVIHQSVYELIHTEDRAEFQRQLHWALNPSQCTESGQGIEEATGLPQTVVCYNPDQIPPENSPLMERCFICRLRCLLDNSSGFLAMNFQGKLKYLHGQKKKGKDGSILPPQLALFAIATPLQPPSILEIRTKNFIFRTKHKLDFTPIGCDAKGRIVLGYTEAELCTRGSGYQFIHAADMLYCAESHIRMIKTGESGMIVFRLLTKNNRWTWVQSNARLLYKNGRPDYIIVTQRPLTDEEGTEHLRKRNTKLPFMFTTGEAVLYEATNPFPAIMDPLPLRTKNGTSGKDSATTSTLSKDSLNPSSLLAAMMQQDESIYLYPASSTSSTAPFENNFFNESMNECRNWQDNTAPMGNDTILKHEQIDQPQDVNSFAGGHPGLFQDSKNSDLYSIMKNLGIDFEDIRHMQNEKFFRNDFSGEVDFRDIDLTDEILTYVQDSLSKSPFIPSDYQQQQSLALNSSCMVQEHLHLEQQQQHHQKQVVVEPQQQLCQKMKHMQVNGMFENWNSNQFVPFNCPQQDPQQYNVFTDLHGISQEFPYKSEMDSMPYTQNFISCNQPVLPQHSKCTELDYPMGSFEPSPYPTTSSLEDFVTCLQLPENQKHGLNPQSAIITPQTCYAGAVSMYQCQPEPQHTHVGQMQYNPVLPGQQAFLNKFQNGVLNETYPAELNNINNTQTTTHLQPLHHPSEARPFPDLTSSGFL
Method: The AHR reporter assay was performed following the protocol of the Human Aryl Hydrocarbon Receptor (AHR) Reporter Assay System (INDIGO Bioscience, #IB06001-32). AHR Reporter Cell was thawed and pre-incubated in Cell Recovery Medium (CRM) for 6 hours. […] Following 24 hours incubation, the media was removed and Luciferase Detection Reagent (LDR) added. The firefly luciferase activity was quantified using a plate reader. Results were normalized by positive and negative controls.

[4] = test system: Human Nuclear Factor (erythroid-derived2)-like 2 (Nrf2); experiment: Nrf2 transcription factor activity reporter assay in human cell line (INDIGO luciferase reporter); type: cell-based; conditions: reporter cells; for EC50: 24 hours incubation; for Nrf2 % activation to Tapinarof at 9 μM: 24 hours, value in brackets
Method: The Nrf2 reporter assay was performed following the protocol of the Human Nuclear Factor (erythroid-derived2)-like 2 (Nrf2) Reporter Assay System (INDIGO Bioscience, #IB10001). Nrf2 Reporter Cell was thawed and pre-incubated in Cell Recovery Medium (CRM) for 6 hours. The media was then removed and the cells were incubated with Compound Screening Medium (CSM) in the absence (negative control) or presence of increasing concentrations of test compounds (typical dilution: 128 pM, 640 pM, 3.2 nM, 16 nM, 80 nM, 400 nM, […] in duplicates) for 24 hours. For positive control, cells activated with CDDO or Nrf2 agonists described in literature. Following 24 hours incubation, the media was removed and Luciferase Detection Reagent (LDR) added. The firefly luciferase activity was quantified using a plate reader. Results were normalized by positive and negative controls.

[5] = first line of cell, read-out: AHR reEC50
[6] = second line of cell, read-out: AHR abEC50
[7] = first line of cell, read-out: Nrf2 reEC50
[8] = second line of cell, read-out: Nrf2 EC50, second line of cell (head does not name it)

Structure (SMILES)	M1 assay IL6 -max % inhibition (% to no treatment) [1]	IC50 [1]	CYP1A1 (% activation to Tapinarof at 1 μM) [2]	EC50 [3, 5]	EC50 [3, 6]	AHR % activation to Tapinarof at 1 μM [3]	EC50 [4, 7]	EC50 [4, 8]	Nrf2 % activation to Tapinarof at 9 μM [4]
CC(C)c1c(O)cc(-c2cnc3ccccc3c2)cc1O [Compound 48]	89.60%	3 nM	78.4%	64.3 nM	57.5 nM	69.5%	14.5 nM	29.6 nM	84.4%
CC(C)c1c(O)cc(-c2nc3ccccc3o2)cc1O [Compound 49]	90.30%	3.14 nM	95.6%	38100 nM	53.4 nM	104.6%	34.9 nM	73.7 nM	69.7%
